Experimental data: patent publication US20090239271A1, “FERMENTATION BROTH EXTRACTION OF K-252A” (ABBOTT LABORATORIES, priority 2005, published 2009)

Assay: solubility of K-252a in various solvents at 22° C.
Type: physicochemical

Question: For `COC(=O)[C@@]1(O)C[C@H]2O[C@]1(C)n1c3ccccc3c3c4c(c5c6ccccc6n2c5c31)C(=O)NC4` [K-252a, methyl (1R,2S,4R)-2,4-(6,7,12,13-tetrahydro-5H-indolo[2,3-a]pyrrolo[3,4-c]carbazol-5-onediyl)-1-hydroxy-2-methyltetrahydrofuran carboxylate], which Solubility (solvent 1% water/acetone) is on record?
Answer: Its Solubility is 9.36 mg K-252a/g solvent.

Question: What about the Solubility (solvent 5% acetone/methanol) of the same compound?
Answer: Its Solubility is 0.90 mg K-252a/g solvent.

Question: What about the Solubility (solvent 10% MTHF/methanol) of the same compound?
Answer: Its Solubility is 1.20 mg K-252a/g solvent.

Question: And the Solubility (solvent 10% acetone/methanol)?
Answer: The Solubility was 1.22 mg K-252a/g solvent.

Question: What about the Solubility (solvent 10% water/MTHF (kinetic)) of the same compound?
Answer: Its Solubility is 104.07 mg K-252a/g solvent.

Question: And the Solubility (solvent 10% water/MTHF (thermodynamic))?
Answer: The Solubility was 31.97 mg K-252a/g solvent.

Question: What about the Solubility (solvent 10% water/acetone) of the same compound?
Answer: Its Solubility is 18.25 mg K-252a/g solvent.

Question: And the Solubility (solvent 10% water/methanol)?
Answer: Its Solubility is 0.54 mg K-252a/g solvent.

Question: And the Solubility (solvent 20% water/acetone)?
Answer: The Solubility was 17.78 mg K-252a/g solvent.

Question: And the Solubility (solvent 20% water/methyl acetate)?
Answer: The Solubility was over 17.7 mg K-252a/g solvent.

Question: And the Solubility (solvent 30% water/acetone)?
Answer: Its Solubility is 12.40 mg K-252a/g solvent.

Question: And the Solubility (solvent 50% acetone/methanol)?
Answer: The Solubility was 7.93 mg K-252a/g solvent.

Question: And the Solubility (solvent 75% acetone/methanol)?
Answer: Its Solubility is 18.59 mg K-252a/g solvent.

Question: And the Solubility (solvent MTHF)?
Answer: Its Solubility is 27.99 mg K-252a/g solvent.

Question: What about the Solubility (solvent acetone) of the same compound?
Answer: The Solubility was 7.99 mg K-252a/g solvent.

Question: What about the Solubility (solvent methanol) of the same compound?
Answer: Its Solubility is 0.72 mg K-252a/g solvent.

Question: And the Solubility (solvent methyl acetate)?
Answer: Its Solubility is over 11.7 mg K-252a/g solvent.
